From patent US20240351965A1, “Synthesis and Evaluation of Novel (4-Hydroxyphenyl) Substituted Carbocycles as Potent and Selective Estrogen Receptor Beta Agonists” (Marquette University, priority 2021, published 2024)
Where two headings read alike, the source gives them in different places.

How the values were obtained:
CYP2C9 = biological target: T1, CYP2C9 (Homo sapiens, UniProt P11712); test: Cytochrome P450 inhibition (P450-Glo), CYP2C9; format: in vitro ADME; settings: for IC50: tested up to 62.5 μM
T1 construct: purchased Promega (P450-Glo Screening Systems)
Procedure: (§1) A screen of Cytochrome p450 inhibition was performed using the Promega P450-Glo™ Screening Systems. The Screening Systems' manual instructions were followed for CYP2C9, CYP2D6, or CYP3A4 enzymes with Luciferin-H, Luciferin-ME EGE or Luciferin-PPXE as substrates, respectively. The components of the kits, i.e., membrane enzymes, control enzymes, substrates and potassium phosphate buffer and or TRIS buffer were combined according to the System-manual's recommended final concentrations. Reactions were pre-incubated in white 96-well flat-bottom plates at 37° C. for 10 min before starting reactions with 2×NADPH regeneration buffer. The 96-well plates were incubated according to the recommended times in the linear range for each enzyme/substrate reaction. The reactions were stopped using 2× Luciferin Detection Reagent. After 20 minutes, the luciferase product was detected using a SpectraMax M5 Molecular Devices plate reader on the end-point luminescence setting. Positive control inhibitors for CYP2C9, CYP2D6, and CYP3A4 enzymes were assayed at a final concentration of 10 μM sulfaphenazole, 1 μM quinidine and 5 μM ketoconazole, respectively. Serial dilutions of 5a/b and (±)-11 were assayed at final concentrations of […], 7.812, 3.906, 1.953, 0.977, 0.488 μM. Inhibition data were analyzed using GraphPad Prism® 6 for Windows, ver. 6.07 (Jun. 12, 2015) software. Raw data were normalized against the control enzyme and untreated CYP enzyme means and then analyzed through non-linear regression using log (inhibitor) vs normalized dose-response curves to assess IC50s. Standard deviations were calculated from Best-fit values. Data were normalized to vehicle and positive controls (sulfaphenazole for CYP2C9, quinidine for CYP2D6, and ketoconazole for CYP3A4) and nonlinear square fits of the data were conducted using Prism 6 (GraphPad).

CYP2D6 = biological target: T2, CYP2D6 (Homo sapiens, UniProt P10635); test: Cytochrome P450 inhibition (P450-Glo), CYP2D6; format: in vitro ADME
T2 construct: purchased Promega (P450-Glo Screening Systems)
Procedure: as §1

CYP3A4 = biological target: T3, CYP3A4 (Homo sapiens, UniProt P08684); test: Cytochrome P450 inhibition (P450-Glo), CYP3A4; format: in vitro ADME
T3 construct: purchased Promega (P450-Glo Screening Systems)
Procedure: as §1

ERβ [1] = biological target: T4, ERβ (Homo sapiens, UniProt Q92731); settings: cited from earlier work
Target sequence in this assay (Q92731 whole entry): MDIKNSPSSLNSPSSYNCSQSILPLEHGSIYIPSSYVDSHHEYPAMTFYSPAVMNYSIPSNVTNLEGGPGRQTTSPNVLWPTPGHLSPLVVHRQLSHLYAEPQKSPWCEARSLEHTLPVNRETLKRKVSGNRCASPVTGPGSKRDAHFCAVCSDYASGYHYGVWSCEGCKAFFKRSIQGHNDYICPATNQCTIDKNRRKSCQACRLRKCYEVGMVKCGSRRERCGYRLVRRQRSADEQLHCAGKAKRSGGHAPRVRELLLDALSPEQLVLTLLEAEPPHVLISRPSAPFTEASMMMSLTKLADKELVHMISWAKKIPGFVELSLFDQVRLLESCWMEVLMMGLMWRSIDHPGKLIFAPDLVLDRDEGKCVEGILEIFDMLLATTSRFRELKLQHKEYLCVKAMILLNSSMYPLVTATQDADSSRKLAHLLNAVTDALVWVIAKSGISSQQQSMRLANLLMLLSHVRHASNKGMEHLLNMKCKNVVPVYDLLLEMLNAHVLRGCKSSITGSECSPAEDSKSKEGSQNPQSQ

ERβ [2] = biological target: T4, ERβ; test: TR-FRET ligand binding displacement assay (LanthaScreen)
Target sequence in this assay (Q92731 264-498 limits assumed): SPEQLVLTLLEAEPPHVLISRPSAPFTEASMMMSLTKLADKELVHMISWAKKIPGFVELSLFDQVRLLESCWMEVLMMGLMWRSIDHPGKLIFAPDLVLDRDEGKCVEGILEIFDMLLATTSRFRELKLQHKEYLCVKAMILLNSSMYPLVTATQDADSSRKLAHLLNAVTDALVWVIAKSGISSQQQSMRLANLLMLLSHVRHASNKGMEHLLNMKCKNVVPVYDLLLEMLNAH

ERβ [3] = biological target: T4, ERβ; test: TR-FRET coactivator binding (recruitment) assay; format: biochemical
Target sequence in this assay (Q92731 264-498 limits assumed): as above

[4] = human, probe Luciferin-ME EGE, read-out: CYP2D6 inhibition: not inhibited at concentrations up to (abstract)
[5] = read-out: CYP2D6 inhibition: no inhibition up to
[6] = human, probe Luciferin-PPXE, read-out: CYP3A4 inhibition: not inhibited at concentrations up to (abstract)
[7] = read-out: CYP3A4 inhibition: no inhibition up to

T3 sequence (P08684 whole entry): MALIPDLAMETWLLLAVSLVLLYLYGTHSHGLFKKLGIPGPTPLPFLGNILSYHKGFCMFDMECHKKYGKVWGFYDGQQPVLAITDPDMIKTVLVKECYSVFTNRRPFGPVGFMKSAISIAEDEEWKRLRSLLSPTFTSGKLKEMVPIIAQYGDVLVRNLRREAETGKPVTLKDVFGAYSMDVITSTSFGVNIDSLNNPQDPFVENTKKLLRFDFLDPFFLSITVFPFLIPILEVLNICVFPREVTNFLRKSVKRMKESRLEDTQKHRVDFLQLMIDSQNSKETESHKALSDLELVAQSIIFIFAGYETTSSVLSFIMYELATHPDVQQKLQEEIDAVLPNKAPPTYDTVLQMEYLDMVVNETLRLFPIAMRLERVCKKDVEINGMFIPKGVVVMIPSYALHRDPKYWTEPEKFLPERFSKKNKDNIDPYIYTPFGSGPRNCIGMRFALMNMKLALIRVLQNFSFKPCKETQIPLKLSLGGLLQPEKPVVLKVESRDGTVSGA
T1 sequence (P11712 whole entry): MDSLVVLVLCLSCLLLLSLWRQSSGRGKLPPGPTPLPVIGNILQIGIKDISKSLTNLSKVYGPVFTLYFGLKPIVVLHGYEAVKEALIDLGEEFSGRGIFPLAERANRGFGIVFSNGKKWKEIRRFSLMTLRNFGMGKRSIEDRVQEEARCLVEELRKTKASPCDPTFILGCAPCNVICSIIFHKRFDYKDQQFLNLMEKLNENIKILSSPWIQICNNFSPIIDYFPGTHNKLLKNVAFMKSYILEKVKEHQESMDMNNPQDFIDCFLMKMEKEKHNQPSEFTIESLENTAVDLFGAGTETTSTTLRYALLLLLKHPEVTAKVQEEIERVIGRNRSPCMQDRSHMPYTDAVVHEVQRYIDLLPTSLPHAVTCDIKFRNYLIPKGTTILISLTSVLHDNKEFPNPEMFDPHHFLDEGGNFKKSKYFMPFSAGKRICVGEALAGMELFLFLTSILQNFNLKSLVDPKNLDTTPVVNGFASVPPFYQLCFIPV
T2 sequence (P10635 whole entry): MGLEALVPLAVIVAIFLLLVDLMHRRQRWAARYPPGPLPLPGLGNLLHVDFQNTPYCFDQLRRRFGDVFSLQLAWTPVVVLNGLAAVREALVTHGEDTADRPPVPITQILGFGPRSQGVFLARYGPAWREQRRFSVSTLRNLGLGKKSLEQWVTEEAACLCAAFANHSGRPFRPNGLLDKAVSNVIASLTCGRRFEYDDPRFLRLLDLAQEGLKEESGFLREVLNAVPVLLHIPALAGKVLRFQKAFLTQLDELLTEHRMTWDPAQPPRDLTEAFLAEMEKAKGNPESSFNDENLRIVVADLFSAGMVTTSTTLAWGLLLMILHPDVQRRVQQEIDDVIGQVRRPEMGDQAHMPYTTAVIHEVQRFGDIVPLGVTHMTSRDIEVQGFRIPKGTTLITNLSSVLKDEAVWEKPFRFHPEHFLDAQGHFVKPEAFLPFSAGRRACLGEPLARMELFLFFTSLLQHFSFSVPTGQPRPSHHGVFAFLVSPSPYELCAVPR

Structure (SMILES) | CYP2C9 binding in enzyme kinetic inhibition assay (CYP2C9) | IC50 (CYP2C9) | CYP2D6 binding in enzyme kinetic inhibition assay (CYP2D6) | IC50 (CYP2D6; [4]) | IC50 (CYP2D6; [5]) | CYP3A4 binding in enzyme kinetic inhibition assay (CYP3A4) | IC50 (CYP3A4; [6]) | IC50 (CYP3A4; [7]) | ERβ selectivity (literature) (ERβ [1]) | EC50 (ERβ [1]; read-out: EC50 (literature, ERβ agonist)) | IC50 (ERβ [2]) | IC50 (ERβ [3])
Oc1ccc(C2CCC3(CC2)CC(O)C3)cc1 (racemic) [(±)-11, 7-(4-hydroxyphenyl)spiro[3.5]nonan-2-ol] | does not bind to any of these CYP450 enzymes with significant activity | > 62.5 µM | does not bind to any of these CYP450 enzymes with significant activity | > 62.5 µM | > 62.5 µM | does not bind to any of these CYP450 enzymes with significant activity | > 62.5 µM | > 62.5 µM |  |  |  | 
OCC12CC3CC(C1)C(c1ccc(O)cc1)C(C3)C2 (stereo not shown) [5a/b, 4-(4-Hydroxyphenyl)tricyclo[3.3.1.1^3,7]decane-1-methanol] |  | 10 ± 0.5 µM | weak binding only to CYP2C9 | > 62.5 µM | > 62.5 µM | weak binding only to CYP2C9 | > 62.5 µM | > 62.5 µM |  |  |  | 
OCC1CCCC(c2ccc(O)cc2)CC1 (stereo not shown) [ISP163] |  |  |  |  |  |  |  |  | 318 fold | 0.033 ± 0.005 µM |  | 
O=C1CC2(CCC(c3ccc(O)cc3)CC2)C1 [compound 10, 7-(4-Hydroxyphenyl)spiro[3.5]nonan-2-one] |  |  |  |  |  |  |  |  |  |  | 2.22 ± 2.66 µM | 1.64 ± 0.301 µM
